Results reported in patent publication US7803930B2, “Antisense modulation of apolipoprotein B-expression” (Isis Pharmaceuticals, Inc., priority 2002, dated 2010).
In the oligonucleotide strings, read from the 5' end, every base follows the letter of its sugar. An asterisk marks phosphorothioate; unmarked linkages are phosphodiester. Other units and linkages are bracketed, terminal groups are in braces. A string of capitals states the bases alone. e = 2'-O-(2-methoxyethyl) (MOE); [5mC] = 5-methylcytosine; d = 2'-deoxy (DNA)

Each substance was assayed on human apolipoprotein B mRNA (assay: Inhibition of human apolipoprotein B mRNA levels in HepG2 cells, quantitative real-time PCR). Conditions: HepG2 cells; human apolipoprotein B mRNA; oligonucleotides targeting genomic sequence SEQ ID NO 334; averages from two experiments.
Type: cell-based
Outline: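 Apolipoprotein B transcript was quantified by one-step TaqMan RT-PCR, normalized to GAPDH or RiboGreen RNA, and expressed as percent inhibition against an untreated-sample standard curve. HepG2 cells were harvested 16-24 h after oligonucleotide exposure, which was delivered with 3.75 μg/mL Lipofectin over 4-7 h at 80% confluency.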

“301135 (eA*eA*eA*eT*eA*d[5mC]*dA*d[5mC]*dA*d[5mC]*d[5mC]*dT*dG*d[5mC]*dT*e[5mC]*eA*eT*eG*eT; antisense) [compound 301135]” and “301136 (e[5mC]*eT*eT*e[5mC]*eA*d[5mC]*dA*dA*dA*dT*dA*d[5mC]*dA*d[5mC]*dA*e[5mC]*e[5mC]*eT*eG*e[5mC]; antisense) [compound 301136]” are the same in “% INHIB” value: 20% for the first, 20% for the second.

Going from “301137 (eA*eG*eT*eG*eG*dA*dA*dG*dT*dT*dT*dG*dG*dT*d[5mC]*eT*e[5mC]*eA*eT*eT; antisense) [compound 301137]” to “301138 (eT*eT*eG*e[5mC]*eT*dA*dG*d[5mC]*dT*dT*d[5mC]*dA*dA*dA*dG*eT*eG*eG*eA*eA; antisense) [compound 301138]”, the “% INHIB” value rises from 41% to 44%.

Going from “301139 (eT*e[5mC]*eA*eA*eG*dA*dA*dT*dA*dA*dG*d[5mC]*dT*d[5mC]*d[5mC]*eA*eG*eA*eT*e[5mC]; antisense) [compound 301139]” to “301140 (eG*e[5mC]*eA*eT*eA*d[5mC]*dA*dA*dG*dT*d[5mC]*dA*d[5mC]*dA*dT*eG*eA*eG*eG*eT; antisense) [compound 301140]”, the “% INHIB” value falls from 41% to 34%.

Going from “301141 (eT*eA*e[5mC]*eA*eA*dG*dG*dT*dG*dT*dT*dT*d[5mC]*dT*dT*eA*eA*eG*eA*eA; antisense) [compound 301141]” to “301142 (eA*eT*eG*e[5mC]*eA*dG*d[5mC]*d[5mC]*dA*dG*dG*dA*dT*dG*dG*eG*e[5mC]*e[5mC]*eT*eA; antisense) [compound 301142]”, the “% INHIB” value rises from 38% to 54%.

Going from “301143 (eT*eT*eA*e[5mC]*e[5mC]*dA*dT*dA*dT*d[5mC]*d[5mC]*dT*dG*dA*dG*eA*eG*eT*eT*eT; antisense) [compound 301143]” to “301144 (eG*e[5mC]*eA*eA*eA*dG*dG*dT*dA*dG*dA*dG*dG*dA*dA*eG*eG*eT*eA*eT; antisense) [compound 301144]”, the “% INHIB” value falls from 55% to 32%.

Compared with “301145 (eA*eA*eG*eG*eA*d[5mC]*d[5mC]*dT*dT*d[5mC]*dA*dG*d[5mC]*dA*dA*eA*eG*eG*eT*eA; antisense) [compound 301145]”, “301146 (e[5mC]*eA*eT*eA*eG*dG*dA*dG*dT*dA*d[5mC]*dA*dT*dT*dT*eA*eT*eA*eT*eA; antisense) [compound 301146]” is lower in “% INHIB” value: 36% for the first, 23% for the second.

Compared with “301147 (eA*eT*eT*eA*eT*dG*dA*dT*dA*dA*dA*dA*dT*d[5mC]*dA*eA*eT*eT*eT*eT; antisense) [compound 301147]”, “301148 (eA*eG*eA*eA*eA*dT*dT*dT*d[5mC]*dA*d[5mC]*dT*dA*dG*dA*eT*eA*eG*eA*eT; antisense) [compound 301148]” is higher in “% INHIB” value: 19% for the first, 31% for the second.

Compared with “301149 (eA*eG*e[5mC]*eA*eT*dA*dT*dT*dT*dT*dG*dA*dT*dG*dA*eG*e[5mC]*eT*eG*eA; antisense) [compound 301149]”, “301150 (eG*eA*eA*eA*eG*dG*dA*dA*dG*dG*dA*d[5mC]*dT*dA*dG*e[5mC]*eA*eT*eA*eT; antisense) [compound 301150]” is lower in “% INHIB” value: 44% for the first, 39% for the second.

Compared with “301151 (e[5mC]*e[5mC]*eT*e[5mC]*eT*d[5mC]*d[5mC]*dA*dA*dT*d[5mC]*dT*dG*dT*dA*eG*eA*e[5mC]*e[5mC]*e[5mC]; antisense) [compound 301151]”, “301152 (e[5mC]*eT*eG*eG*eA*dT*dA*dA*d[5mC]*dT*d[5mC]*dA*dG*dA*d[5mC]*e[5mC]*eT*eT*eT*eG; antisense) [compound 301152]” is higher in “% INHIB” value: 28% for the first, 40% for the second.

Going from “301153 (eA*eG*eT*e[5mC]*eA*dG*dA*dA*dA*dA*d[5mC]*dA*dA*d[5mC]*d[5mC]*eT*eA*eT*eT*e[5mC]; antisense) [compound 301153]” to “301154 (e[5mC]*eA*eG*e[5mC]*e[5mC]*dT*dG*d[5mC]*dA*dT*d[5mC]*dT*dA*dT*dA*eA*eG*eT*e[5mC]*eA; antisense) [compound 301154]”, the “% INHIB” value rises from 11% to 31%.

Compared with “301155 (eA*eA*eA*eG*eA*dA*dT*dT*dA*d[5mC]*d[5mC]*d[5mC]*dT*d[5mC]*d[5mC]*eA*e[5mC]*eT*eG*eA; antisense) [compound 301155]”, “301156 (eT*e[5mC]*eT*eT*eT*d[5mC]*dA*dA*dA*d[5mC]*dT*dG*dG*d[5mC]*dT*eA*eG*eG*e[5mC]*eA; antisense) [compound 301156]” is higher in “% INHIB” value: 33% for the first, 39% for the second.

First: 301157 (eG*e[5mC]*e[5mC]*eT*eG*dG*d[5mC]*dA*dA*dA*dA*dT*dT*d[5mC]*dT*eG*e[5mC]*eA*eG*eG; antisense) [compound 301157]
Second: 301158 (e[5mC]*eT*eA*e[5mC]*e[5mC]*dT*d[5mC]*dA*dA*dA*dT*d[5mC]*dA*dA*dT*eA*eT*eG*eT*eT; antisense) [compound 301158]
The “% INHIB” value of the first is higher: 37% for the first, 28% for the second.

Compared with “301159 (eT*eG*e[5mC]*eT*eT*dT*dA*d[5mC]*d[5mC]*dT*dA*d[5mC]*d[5mC]*dT*dA*eG*e[5mC]*eT*eA*e[5mC]; antisense) [compound 301159]”, “301160 (eA*e[5mC]*e[5mC]*eT*eT*dG*dT*dG*dT*dG*dT*d[5mC]*dT*d[5mC]*dA*e[5mC]*eT*e[5mC]*eA*eA; antisense) [compound 301160]” is higher in “% INHIB” value: 36% for the first, 49% for the second.

Compared with “301161 (eA*eT*eG*e[5mC]*eA*dT*dT*d[5mC]*d[5mC]*d[5mC]*dT*dG*dA*d[5mC]*dT*eA*eG*e[5mC]*eA*e[5mC]; antisense) [compound 301161]”, “301162 (antisense e[5mC]*eA*eT*e[5mC]*eT*d[5mC]*dT*dG*dA*dG*d[5mC]*d[5mC]*d[5mC]*d[5mC]*dT*eT*eA*e[5mC]*e[5mC]*eA) [compound 301162]” is lower in “% INHIB” value: 34% for the first, 24% for the second.

Compared with “301163 (antisense eG*e[5mC]*eT*eG*eG*dG*d[5mC]*dA*dT*dG*d[5mC]*dT*d[5mC]*dT*d[5mC]*eT*e[5mC]*e[5mC]*e[5mC]*e[5mC]) [compound 301163]”, “301164 (antisense eG*e[5mC]*eT*eT*eT*d[5mC]*dG*d[5mC]*dA*dG*d[5mC]*dT*dG*dG*dG*e[5mC]*eA*eT*eG*e[5mC]) [compound 301164]” is higher in “% INHIB” value: 51% for the first, 55% for the second.

Going from “301165 (antisense eA*e[5mC]*eT*e[5mC]*e[5mC]*dT*dT*dT*d[5mC]*dT*dA*dT*dA*d[5mC]*d[5mC]*eT*eG*eG*e[5mC]*eT) [compound 301165]” to “301166 (antisense eA*eT*eT*e[5mC]*eT*dG*d[5mC]*d[5mC]*dT*d[5mC]*dT*dT*dA*dG*dA*eA*eA*eG*eT*eT) [compound 301166]”, the “% INHIB” value falls from 47% to 38%.

Compared with “301167 (antisense e[5mC]*e[5mC]*eA*eA*eG*d[5mC]*d[5mC]*dT*d[5mC]*dT*dT*dT*dA*d[5mC]*dT*eG*eG*eG*e[5mC]*eT) [compound 301167]”, “301168 (antisense e[5mC]*eA*e[5mC]*eT*e[5mC]*dA*dT*dG*dA*d[5mC]*d[5mC]*dA*dG*dA*d[5mC]*eT*eA*eA*eG*eA) [compound 301168]” is higher in “% INHIB” value: 29% for the first, 35% for the second.

First: 301169 (antisense eA*e[5mC]*e[5mC]*eT*e[5mC]*d[5mC]*d[5mC]*dA*dG*dA*dA*dG*d[5mC]*d[5mC]*dT*eT*e[5mC]*e[5mC]*eA*eT) [compound 301169]
Second: 301170 (antisense eT*eT*e[5mC]*eA*eT*dA*dT*dG*dA*dA*dA*dT*d[5mC]*dT*d[5mC]*e[5mC]*eT*eA*e[5mC]*eT) [compound 301170]
The “% INHIB” value of the first is lower: 22% for the first, 40% for the second.
